The text below walks through data of patent US7058616B1, “Method and system for predicting resistance of a disease to a therapeutic agent using a neural network” (Virco Bvba, priority 2000, dated 2006).

The test system of assay [1] is HIV-1. The conditions noted are these: cited from earlier work.
Assay [2] relates to HIV-1. The assay is described as follows: MT-4 cell viral cytopathic effect protection assay, phenotypic susceptibility of patient recombinant virus. Format: cell-based. The procedure:
Phenotypic susceptibility was determined using a MT-4 cell viral cytopathic effect protection assay. See, e.g., Kashiwase et al., Chemotherapy 45(1):48–55 (1999), expressly incorporated herein by reference; Larder et al., Antimicrob. Agents Chemother. 43(8):1961–1967 (1999).
(In general: Cytopathic effects are the visible damage that an infection or toxin causes in cultured cells.)

Turning to `Cc1cn([C@H]2C[C@H](N=[N+]=[N-])[C@@H](CO)O2)c(=O)[nH]c1=O` [AZT, 3′-azido-3′-deoxythymidine], in assay [1], the “Effect of M184V mutation on AZT resistance” value is “reverses AZT resistance”. The “Effect of 333D/E mutation” value in assay [1] (reverses the M184V effect) is “dual AZT/3TC resistance”.

Take `CC(C)(C)NC(=O)[C@@H]1CN(Cc2cccnc2)CCN1C[C@@H](O)C[C@@H](Cc1ccccc1)C(=O)N[C@H]1c2ccccc2C[C@H]1O` [Indinavir]: the “actual phenotype resistance level” value was “R/R (if the value is greater than 10, it is considered to be ‘resistant’)” in assay [2] (PI test sample 4); “R (if the value is greater than 10, it is considered to be ‘resistant’)” in assay [2] (PI test sample 5); “S/S (A fold resistance of less than or equal to 4 is considered to be ‘sensitive’)” in assay [2] (PI test sample 6); “S/S (A fold resistance of less than or equal to 4 is considered to be ‘sensitive’)” in assay [2] (PI test sample 7); “S/S (A fold resistance of less than or equal to 4 is considered to be ‘sensitive’)” in assay [2] (PI test sample 8); “S/S (A fold resistance of less than or equal to 4 is considered to be ‘sensitive’)” in assay [2] (PI test sample 9). Also, the “actual phenotype resistance level” value was “S/S (A fold resistance of less than or equal to 4 is considered to be ‘sensitive’)” in assay [2] (PI test sample 10); “S (A fold resistance of less than or equal to 4 is considered to be ‘sensitive’)” in assay [2] (PI test sample 11, listed as IDV); “S/S (A fold resistance of less than or equal to 4 is considered to be ‘sensitive’)” in assay [2] (PI test sample 12); “R/R (if the value is greater than 10, it is considered to be ‘resistant’)” in assay [2] (PI test sample 13); “R/R (if the value is greater than 10, it is considered to be ‘resistant’)” in assay [2] (PI test sample 14); “R/R (if the value is greater than 10, it is considered to be ‘resistant’)” in assay [2] (PI test sample 16). Besides, the “actual phenotype resistance level” value in assay [2] (PI test sample 17) is listed as “R/R (if the value is greater than 10, it is considered to be ‘resistant’)”; in assay [2] (PI test sample 22), “S (A fold resistance of less than or equal to 4 is considered to be ‘sensitive’)”; in assay [2] (PI test sample 23), “R/R (if the value is greater than 10, it is considered to be ‘resistant’)”; in assay [2] (PI test sample 24), “R/R (if the value is greater than 10, it is considered to be ‘resistant’)”; in assay [2] (PI test sample 26), “R/R (if the value is greater than 10, it is considered to be ‘resistant’)”; in assay [2] (PI test sample 27), “R/R (if the value is greater than 10, it is considered to be ‘resistant’)”. The “actual phenotype resistance level” value is “R/R (if the value is greater than 10, it is considered to be ‘resistant’)” in assay [2] (PI test sample 28); “R/R (if the value is greater than 10, it is considered to be ‘resistant’)” in assay [2] (PI test sample 32); “R/R (if the value is greater than 10, it is considered to be ‘resistant’)” in assay [2] (PI test sample 35); “R/R (if the value is greater than 10, it is considered to be ‘resistant’)” in assay [2] (PI test sample 36); “I/I (greater than 4 and less than 10 is considered to be ‘intermediate’)” in assay [2] (PI test sample 37); “R/R (if the value is greater than 10, it is considered to be ‘resistant’)” in assay [2] (PI test sample 38). The “actual phenotype resistance level” value in assay [2] (PI test sample 39) was “R/R (if the value is greater than 10, it is considered to be ‘resistant’)”; in assay [2] (PI test sample 40), “R/R (if the value is greater than 10, it is considered to be ‘resistant’)”; in assay [2] (PI test sample 43), “I/I (greater than 4 and less than 10 is considered to be ‘intermediate’)”; in assay [2] (PI test sample 45), “R/R (if the value is greater than 10, it is considered to be ‘resistant’)”; in assay [2] (PI test sample 46) it was “R/R (if the value is greater than 10, it is considered to be ‘resistant’)”; in assay [2] (PI test sample 47, listed as IDV), “R/R (if the value is greater than 10, it is considered to be ‘resistant’)”. Moreover, the “actual phenotype resistance level” value in assay [2] (PI test sample 48) is reported as “R/R (if the value is greater than 10, it is considered to be ‘resistant’)”; in assay [2] (PI test sample 49), “R/R (if the value is greater than 10, it is considered to be ‘resistant’)”; in assay [2] (PI test sample 51), “R/R (if the value is greater than 10, it is considered to be ‘resistant’)”; in assay [2] (PI test sample 53), “R/R (if the value is greater than 10, it is considered to be ‘resistant’)”; in assay [2] (Table 3 testing sample 1), “S/S (A fold resistance of less than or equal to 4 is considered to be “sensitive,”)”; in assay [2] (Table 3 testing sample 2), “S/S (A fold resistance of less than or equal to 4 is considered to be “sensitive,”)”. Also, the “actual phenotype resistance level” value is listed as “R/R (if the value is greater than 10, it is considered to be “resistant.”)” in assay [2] (Table 3 testing sample 5); “S/S (A fold resistance of less than or equal to 4 is considered to be “sensitive,”)” in assay [2] (Table 3 testing sample 7); “S/S (A fold resistance of less than or equal to 4 is considered to be “sensitive,”)” in assay [2] (Table 3 testing sample 9); “S (A fold resistance of less than or equal to 4 is considered to be “sensitive,”)” in assay [2] (Table 3 testing sample 10). The actual phenotype entry in assay [2] (Table 13/14 sample 2: 10I,46I,48V,77I,82A,90M, 10E,58E,63T) is “S (A fold resistance of less than or equal to 4 is considered to be ‘sensitive’)”; in assay [2] (Table 13/14 sample 8: 10I,54V,71V,73S,84V,90M, 33M,63P) it was “I (greater than 4 and less than 10 is considered to be ‘intermediate’)”; in assay [2] (Table 13/14 sample 13: 10I,36I,71T,90M, 63P,73T), “I (greater than 4 and less than 10 is considered to be ‘intermediate’)”; in assay [2] (Table 13/14 sample 14: 10I,46I,71T,77I,90M, 57K,63P,93L), “S (A fold resistance of less than or equal to 4 is considered to be ‘sensitive’)”; in assay [2] (Table 13/14 sample 17: 46I,77I,90M, 10F,20L,63P) it was “I (greater than 4 and less than 10 is considered to be ‘intermediate’)”; in assay [2] (Table 13/14 sample 18: 36I,71T,90M, 63P,93L), “S (A fold resistance of less than or equal to 4 is considered to be ‘sensitive’)”. The actual phenotype result in assay [2] (Table 13/14 sample 20: 77I,88S, 13V, 63P, 93L) was “S (A fold resistance of less than or equal to 4 is considered to be ‘sensitive’)”; in assay [2] (Table 13/14 sample 21: 10I,77I,84V,90M, 63Q), “I (greater than 4 and less than 10 is considered to be ‘intermediate’)”; in assay [2] (Table 13/14 sample 22: 10I,20R,36I,71V,73S,84V,90M, 13V,63P) it was “R (if the value is greater than 10, it is considered to be ‘resistant’)”.

As for `CC(C)(C)NC(=O)[C@@H]1C[C@@H]2CCCC[C@@H]2CN1C[C@@H](O)[C@H](Cc1ccccc1)NC(=O)[C@H](CC(N)=O)NC(=O)c1ccc2ccccc2n1` [Saquinavir], the actual phenotype entry in assay [2] (Table 13/14 sample 1: 10I,71V,73S,84V,90M, 63P,85V,93L) is “R (if the value is greater than 10, it is considered to be ‘resistant’)”; in assay [2] (Table 13/14 sample 9: 10I,46L,54V,71V,82A,90M, 63P,93L), “S (A fold resistance of less than or equal to 4 is considered to be ‘sensitive’)”; in assay [2] (Table 13/14 sample 11: 10I,46L,54V,71V,77I,82A,90M, 55R,58E,63P,93L), “R (if the value is greater than 10, it is considered to be ‘resistant’)”; in assay [2] (Table 13/14 sample 19: 54V,71V,82A, 63P,93L), “I (greater than 4 and less than 10 is considered to be ‘intermediate’)”.

In the case of `Nc1ccn([C@H]2CC[C@@H](CO)O2)c(=O)n1` [DDC], the “actual phenotype resistance level” value in assay [2] (Table 3 testing sample 1) was “S/S (A fold resistance of less than or equal to 4 is considered to be “sensitive,”)”; in assay [2] (Table 3 testing sample 2), “S/S (A fold resistance of less than or equal to 4 is considered to be “sensitive,”)”; in assay [2] (Table 3 testing sample 3) it was “S/S (A fold resistance of less than or equal to 4 is considered to be “sensitive,”)”; in assay [2] (Table 3 testing sample 4), “S/S (A fold resistance of less than or equal to 4 is considered to be “sensitive,”)”; in assay [2] (Table 3 testing sample 5) it was “S/S (A fold resistance of less than or equal to 4 is considered to be “sensitive,”)”; in assay [2] (Table 3 testing sample 6), “I (greater than 4 and less than 10 is considered to be “intermediate,”)”. Besides, the “actual phenotype resistance level” value in assay [2] (Table 3 testing sample 7) is given as “S/S (A fold resistance of less than or equal to 4 is considered to be “sensitive,”)”; in assay [2] (Table 3 testing sample 8), “S (A fold resistance of less than or equal to 4 is considered to be “sensitive,”)”; in assay [2] (Table 3 testing sample 9) it was “S/S (A fold resistance of less than or equal to 4 is considered to be “sensitive,”)”; in assay [2] (Table 3 testing sample 10), “S/S (A fold resistance of less than or equal to 4 is considered to be “sensitive,”)”.
